Assay: xn = mol fraction of the nth substance listed

CCNCC + CCCCOCCO
viscosity [mPa·s], 100 kPa
Conditions	298.15 K	303.15 K	308.15 K
x2 = 0.0499	0.35	0.335	0.31
x2 = 0.1001	0.417	0.391	0.368
x2 = 0.1508	0.485	0.45	0.423
x2 = 0.2001	0.561	0.523	0.492
x2 = 0.2997	0.758	0.693	0.647
x2 = 0.3995	1.028	0.933	0.865
x2 = 0.5	1.356	1.212	1.116
x2 = 0.5999	1.72	1.516	1.389
x2 = 0.7	2.083	1.832	1.673
x2 = 0.7999	2.407	2.101	1.913
x2 = 0.8997	2.662	2.319	2.1
x2 = 0.9495	2.769	2.415	2.181

Nc1ccccc1 + CCCCO
Conditions	viscosity [mPa·s]
298.15 K, 101 kPa, x1 = 0.09983	2.368
298.15 K, 101 kPa, x1 = 0.1935	2.278
298.15 K, 101 kPa, x1 = 0.3051	2.249
298.15 K, 101 kPa, x1 = 0.4055	2.287
298.15 K, 101 kPa, x1 = 0.4837	2.343
298.15 K, 101 kPa, x1 = 0.6005	2.474
298.15 K, 101 kPa, x1 = 0.6946	2.637
298.15 K, 101 kPa, x1 = 0.8028	2.899
298.15 K, 101 kPa, x1 = 0.8996	3.231
303 K, 101.33 kPa, x1 = 0.1	2.031
303 K, 101.33 kPa, x1 = 0.2	1.975
303 K, 101.33 kPa, x1 = 0.3	1.951
303 K, 101.33 kPa, x1 = 0.4	1.938
303 K, 101.33 kPa, x1 = 0.5	1.962
303 K, 101.33 kPa, x1 = 0.6	2.013
303 K, 101.33 kPa, x1 = 0.7	2.186
303 K, 101.33 kPa, x1 = 0.8	2.342
303 K, 101.33 kPa, x1 = 0.9	2.751
303.15 K, 100 kPa, x1 = 0.1195	2.083
303.15 K, 100 kPa, x1 = 0.2339	1.951
303.15 K, 100 kPa, x1 = 0.3649	1.857
303.15 K, 100 kPa, x1 = 0.4693	1.843
303.15 K, 100 kPa, x1 = 0.5498	1.878
303.15 K, 100 kPa, x1 = 0.6658	1.994
303.15 K, 100 kPa, x1 = 0.7945	2.261
303.15 K, 100 kPa, x1 = 0.9166	2.647
303.15 K, 101 kPa, x1 = 0.09983	2.049
303.15 K, 101 kPa, x1 = 0.1935	1.965
303.15 K, 101 kPa, x1 = 0.3051	1.941
303.15 K, 101 kPa, x1 = 0.4055	1.965
303.15 K, 101 kPa, x1 = 0.4837	2.01
303.15 K, 101 kPa, x1 = 0.6005	2.13
303.15 K, 101 kPa, x1 = 0.6946	2.248
303.15 K, 101 kPa, x1 = 0.8028	2.468
303.15 K, 101 kPa, x1 = 0.8996	2.745
308.15 K, 101 kPa, x1 = 0.09983	1.8
308.15 K, 101 kPa, x1 = 0.1935	1.734
308.15 K, 101 kPa, x1 = 0.3051	1.703
308.15 K, 101 kPa, x1 = 0.4055	1.722
308.15 K, 101 kPa, x1 = 0.4837	1.77
308.15 K, 101 kPa, x1 = 0.6005	1.857
308.15 K, 101 kPa, x1 = 0.6946	1.971
308.15 K, 101 kPa, x1 = 0.8028	2.144
308.15 K, 101 kPa, x1 = 0.8996	2.375
313.15 K, 100 kPa, x1 = 0.1195	1.605
313.15 K, 100 kPa, x1 = 0.2339	1.484
313.15 K, 100 kPa, x1 = 0.3649	1.39
313.15 K, 100 kPa, x1 = 0.4693	1.364
313.15 K, 100 kPa, x1 = 0.5498	1.393
313.15 K, 100 kPa, x1 = 0.6658	1.492
313.15 K, 100 kPa, x1 = 0.7945	1.709
313.15 K, 100 kPa, x1 = 0.9166	2.027
313.15 K, 101 kPa, x1 = 0.09983	1.568
313.15 K, 101 kPa, x1 = 0.1935	1.5
313.15 K, 101 kPa, x1 = 0.3051	1.44
313.15 K, 101 kPa, x1 = 0.4055	1.468
313.15 K, 101 kPa, x1 = 0.4837	1.529
313.15 K, 101 kPa, x1 = 0.6005	1.613
313.15 K, 101 kPa, x1 = 0.6946	1.709
313.15 K, 101 kPa, x1 = 0.8028	1.861
313.15 K, 101 kPa, x1 = 0.8996	2.048

C[C@@H]1CC[C@@H]2C[C@H]1C2(C)C + C[C@H]1CC[C@@H]2C[C@H]1C2(C)C
100 kPa, x2 = 0.9048
Conditions	viscosity [mPa·s]
293.15 K	2.24
298.15 K	2.023
303.15 K	1.838
308.15 K	1.679
313.15 K	1.538
318.15 K	1.415
323.15 K	1.308

CC(C)(C)O + CCC(C)=O
viscosity [mPa·s]
Conditions	298.15 K	303.15 K	308.15 K	313.15 K	318.15 K
101 kPa, x1 = 0.0925	0.3917	0.3748	0.3599	–	–
101 kPa, x1 = 0.1893	0.4117	0.3946	0.3737	–	–
101 kPa, x1 = 0.2885	0.4407	0.4203	0.3964	–	–
101 kPa, x1 = 0.3835	0.4875	0.452	0.422	–	–
101 kPa, x1 = 0.4877	0.5818	0.5397	0.4915	–	–
101 kPa, x1 = 0.5862	0.7295	0.6627	0.602	–	–
101 kPa, x1 = 0.6907	0.9865	0.8797	0.7882	–	–
101 kPa, x1 = 0.7895	1.424	1.237	1.085	–	–
101 kPa, x1 = 0.8935	2.253	1.879	1.588	–	–
101.3 kPa, x1 = 0.0985	0.423	0.401	0.38	0.361	0.343
101.3 kPa, x1 = 0.1968	0.464	0.438	0.413	0.391	0.37
101.3 kPa, x1 = 0.2962	0.52	0.487	0.457	0.429	0.405
101.3 kPa, x1 = 0.3941	0.595	0.553	0.514	0.48	0.449
101.3 kPa, x1 = 0.4949	0.705	0.647	0.596	0.551	0.511
101.3 kPa, x1 = 0.5928	0.859	0.779	0.708	0.647	0.593
101.3 kPa, x1 = 0.695	1.116	0.99	0.884	0.793	0.716
101.3 kPa, x1 = 0.8003	1.577	1.357	1.178	1.031	0.909
101.3 kPa, x1 = 0.9037	2.474	2.029	1.687	1.421	1.212
